Reference: a compilation of properties of binary mixtures (doi:10.1016/j.fluid.2023.113736)

Test: xn = mol fraction of the nth substance listed
Conditions: 100 kPa, x1 = 0.5

C[N+](CCO)(CCO)CCOCCO.[Cl-] + NC(N)=O
Conditions | viscosity [mPa·s]
283.15 K | 45000
288.15 K | 23200
293.15 K | 12700
298.15 K | 7350
303.15 K | 4396
308.15 K | 2744
313.15 K | 1766
318.15 K | 1172
323.15 K | 794
333.15 K | 400
338.15 K | 295
